Patent publication US20050277615A1, “Pharmaceutical compositions having anti-inflammatory activity” (CAN-FITE BIOPHARMA LTD., priority 2004, published 2005)
Values belong to the molecule of their own block, whether it stands above or below them.

Legend:
[1] = Preliminary qualitative solubility study; format: physicochemical; settings: 1 mg/ml, ambient temperature
[2] = target: T1, adenosine A1 receptor in rat brain cortex (Rattus norvegicus, UniProt P25099); experiment: Radioligand binding, [3H]DPCPX displacement; settings: rat cortical membranes, 10 μM
T1 construct: the adenosine A1 receptor in rat brain cortex; from tissue; host or cells: rat brain cortex
T1 sequence (P25099 1-326): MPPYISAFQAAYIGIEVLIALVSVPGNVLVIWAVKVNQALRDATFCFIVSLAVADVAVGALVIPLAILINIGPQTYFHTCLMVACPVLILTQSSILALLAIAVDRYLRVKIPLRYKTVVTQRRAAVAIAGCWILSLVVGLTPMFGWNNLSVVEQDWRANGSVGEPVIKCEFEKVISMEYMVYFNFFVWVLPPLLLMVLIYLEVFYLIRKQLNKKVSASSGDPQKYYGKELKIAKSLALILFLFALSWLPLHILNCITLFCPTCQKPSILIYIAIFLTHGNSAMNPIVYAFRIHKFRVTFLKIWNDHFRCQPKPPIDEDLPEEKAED

[3] = target: T2, A2A receptor in rat striatum (Rattus norvegicus, UniProt P30543); experiment: Radioligand binding, [3H]ZM 241385 displacement; settings: [3H]ZM 241385, rat striatal membranes
T2 construct: the A2A receptor in rat striatum; from tissue; host or cells: rat striatum
T2 sequence (P30543 whole entry): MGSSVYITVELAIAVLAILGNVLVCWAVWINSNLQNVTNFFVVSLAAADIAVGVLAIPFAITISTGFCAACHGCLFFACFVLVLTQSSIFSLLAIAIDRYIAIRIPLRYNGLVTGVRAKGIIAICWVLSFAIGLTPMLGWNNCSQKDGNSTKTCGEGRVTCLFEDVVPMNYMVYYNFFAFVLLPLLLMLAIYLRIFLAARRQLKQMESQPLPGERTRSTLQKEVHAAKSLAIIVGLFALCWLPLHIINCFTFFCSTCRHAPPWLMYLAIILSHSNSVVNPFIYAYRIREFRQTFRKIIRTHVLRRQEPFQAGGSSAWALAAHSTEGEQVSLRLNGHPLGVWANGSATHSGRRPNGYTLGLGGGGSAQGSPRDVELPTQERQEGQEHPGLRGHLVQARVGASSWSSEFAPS

[4] = target: T3, human adenosine A2A receptors expressed in CHO cells (Homo sapiens, UniProt P29274); experiment: cAMP assay A2A (stimulation of cAMP production); format: cell-based
T3 construct: expressed in transfected cells; host or cells: CHO
T3 sequence (P29274 whole entry): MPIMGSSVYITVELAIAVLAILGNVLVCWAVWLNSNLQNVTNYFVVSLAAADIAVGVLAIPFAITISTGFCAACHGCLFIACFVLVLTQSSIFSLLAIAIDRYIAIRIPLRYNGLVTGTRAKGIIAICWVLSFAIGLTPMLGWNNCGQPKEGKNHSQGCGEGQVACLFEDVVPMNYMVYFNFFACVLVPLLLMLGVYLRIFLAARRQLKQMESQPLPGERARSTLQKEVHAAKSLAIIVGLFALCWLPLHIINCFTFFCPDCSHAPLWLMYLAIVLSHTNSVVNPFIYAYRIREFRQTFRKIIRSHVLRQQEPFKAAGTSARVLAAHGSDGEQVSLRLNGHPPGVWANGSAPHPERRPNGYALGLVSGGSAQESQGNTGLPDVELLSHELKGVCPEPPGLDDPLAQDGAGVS
Protocol: After incubation for 40 minutes at 37° C., 100 μL agonist was added. […] Wells were stored at −20° C. until assay.
Wells were stored at −20° C. until assay. […] As a buffer was used 150 mM K2HPO4/10 mM EDTA/0.2% Bovine Serum Albumine (BSA) at pH 7.5.
(§1) Data Analysis. Apparent Ki and EC50 values were computed from the displacement curves by non-linear regression of the competition curves with the software package Prism (Graph Pad, San Diego, Calif.).

[5] = tested on: Experimental autoimmune encephalomyelitis (EAE) in female Lewis rats; experiment: MBP-induced EAE in Lewis rats, clinical score; format: in vivo, rat; settings: 10 μg/kg PO BID from day 7, difference in maximal clinical score P<0.01 (FIG. 1)
Protocol: EAE is an inflammatory demyelinating disease of the nervous system, which serves as a model for multiple sclerosis (MS). EAE was induced by intradermal injection at the base of the tail of female Lewis rats (8 weeks old) with an emulsion consisting of the following for each rat: 100 μg myelin basic protein (MBP) from guinea pig (M2295; Sigma), 0.1 ml Complete Freund's adjuvant (CFA; F5506, Sigma), and 0.2 mg of Mycobacterium tuberculosis H37 Ra (M. tuberculosis, 3114, Difco). The emulsion was injected in two halves into the medial footpad of each hind limb of the rats.
The rats developed clinical EAE symptoms which were graded into the following categories: 0, no neurological symptoms; 1, loss of tail tonus and paralysis of the whole tail; 2, hind limbs weakness; 3, hind limbs paralysis; 4, quadriplegia; 5, moribund. The immunized rats developed acute monophasic EAE within 10 days after immunization.

TNF-α = experiment: Western blot of spinal cord protein extract of EAE rats; format: in vivo, rat; settings: treated vs untreated (FIG. 2)
IL-10 = experiment: as above; format: in vivo, rat; settings: treated vs untreated (FIG. 2)
phosphorylated GSK-3β = experiment: as above; format: in vivo, rat; settings: treated vs untreated (FIG. 2)
EAE in female C57B1 mice = experiment: MOG-induced EAE in C57B1 mice, clinical score; format: in vivo, mouse; settings: MOG-immunized C57BL/6J female mice, oral treatment from day 7 (FIG. 3)
Protocol: . The encephalitogenic emulsion containing MOG (300 μg/mouse) in Complete Freund's adjuvant enriched with 5 mg/mL Mycobacterium Tuberculosis was injected subcutaneously in the right flank of the mouse. A boost of the encephalitogenic emulsion was injected subcutaneously in the left flank one week later. Also, on the day of the first injection of MOG, Pertussis toxin (300 ng/mouse) was injected intraperitoneally at a volume dose of 0.1 mL/mouse. The injection of the Pertussis Toxin was repeated after 48 hours. The mice were observed daily from the 10th day post-EAE induction (first injection of MOG) and the EAE clinical signs were scored as follows:. 0—No neurological signs; 1—Distal limp tail: 1.5—Complete limp tail; 2—Difficulties to return on feet when laid on the back; 3—Ataxia; 4—Early paralysis; 5—Full paralysis; 6—Moribund/Death. […] The clinical score was monitored daily starting with the appearance of neurological signs.

[6] = tested on: colitis in male Balb/C mice; experiment: Dextran sodium sulfate colitis model; format: in vivo, mouse; settings: 5% DSS Balb/c mice
Description: Colitis induced by dextran sodium sulfate is a murine model of intestinal inflammation that resembles human inflammatory bowel diseases such as Crohn's disease. Male Balb/C mice, 8 weeks of age were fed for 7 days, with 5% dextran sulfate sodium in distilled water throughout the experiments. […] Weight loss and survival were monitored.

[7] = target: T4, human A3 receptor as expressed in HEK 293 cells (Homo sapiens, UniProt P0DMS8); experiment: Radioligand binding, [125I]AB-MECA displacement; settings: human A3 receptor in HEK 293 cells, ±SEM, n = 3
T4 construct: expressed in transfected cells; host or cells: HEK 293
T4 sequence (P0DMS8 1-318): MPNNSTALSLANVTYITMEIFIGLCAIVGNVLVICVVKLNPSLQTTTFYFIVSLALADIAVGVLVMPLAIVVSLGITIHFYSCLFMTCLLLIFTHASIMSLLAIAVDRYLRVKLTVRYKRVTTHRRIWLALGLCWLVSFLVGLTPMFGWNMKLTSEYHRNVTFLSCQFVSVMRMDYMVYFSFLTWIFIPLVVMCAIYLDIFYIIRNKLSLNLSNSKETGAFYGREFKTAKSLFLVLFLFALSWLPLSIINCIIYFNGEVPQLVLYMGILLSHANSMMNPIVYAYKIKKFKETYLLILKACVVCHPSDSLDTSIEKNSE
Protocol: General. […] AB-MECA, an A3 receptor agonist, was used. Displacement experiments were performed in the absence of GTP.
Radioligand Binding Studies. […] Incubations were carried out for 1 hr at 37° C. and were terminated by rapid filtration over Whatman GF/B filters, using a Brandell cell harvester (Brandell, Gaithersburg, Md.). Tubes were washed three times with 3 ml of buffer. Radioactivity was determined in a Beckman 5500B γ-counter. Nonspecific binding was determined in the presence of 10^−5 M R-PIA.
as §1

A1 receptor = target: T5, A1 receptor (Rattus norvegicus, UniProt P25099); settings: Siddiqi et al (1995); cited from earlier work
T5 sequence (P25099 1-326): T1 sequence (P25099 1-326)

A2a receptor = A2a receptor (Rattus norvegicus, UniProt P30543); settings: Siddiqi et al (1995); cited from earlier work
Sequence of A2a receptor (P30543 whole entry): as the sequence (P30543 whole entry) above

[8] = tested on: multiple sclerosis (MS) patients; settings: patients having MS, U.S. Pat. No. 5,506,214; cited from earlier work

Solubility in DMSO ([1]; DMSO): Soluble | Solubility in water ([1]; water): Insoluble | % displacement at 10^−5 M, A1 [2]: 36% | Ki ([3]; ±SEM, n = 3): 60 ± 20 nM | Emax ([4]; CHO): 45 ± 6% | EC50 ([4]; cAMP production, A2A CHO cells): 0.7 ± 0.1 µM
SMILES: CCCCC#Cc1nc(N)c2ncn(C3OC(CSC)C(O)C3O)c2n1 (stereo not drawn) [CF402, 5′-deoxy-2-(1-hexynyl)-5′-methylthioadenosine]
Clinical EAE score vs control group [5]: remarkably low clinical score | Level of TNF-α in spinal cord protein extract (TNF-α): down-regulation | Level of IL-10 in spinal cord protein extract (IL-10): up-regulation | Phosphorylated GSK-3β protein expression level in spinal cord (phosphorylated GSK-3β): decrease | Inhibition of development of EAE clinical signs vs control group (EAE in female C57B1 mice): 40% | Clinical signs of colitis ([6]; 10 μg/kg PO BID from day 4): protected | Weight loss vs control ([6]; 10 μg/kg PO BID from day 4 (FIG. 4)): reduced weight loss

Ki [7]: 120 ± 15 nM
SMILES: OC[C@H]1O[C@@H](n2cnc3c(NC4CCCC4)ncnc32)[C@H](O)[C@@H]1O [CPA]

SMILES: Nc1nc(Cl)nc2c1ncn2[C@H]1C[C@H](O)[C@@H](CO)O1 [CdA, 2-chloro-2′-deoxyadenosine]
Type of action at A1 receptors (A1 receptor): putative partial agonist | Ki (A2a receptor): 20000 nM | Effect on MS disease condition [8]: markedly ameliorate

% displacement at 10^−5 M, A2A ([3]; 10 μM): 24%
SMILES: CNC(=O)[C@H]1O[C@@H](n2cnc3c(NCc4cccc(I)c4)nc(Cl)nc32)[C@H](O)[C@@H]1O [Cl-IB-MECA, reference compound]
